These results are taken from patent US20220356147A1, “COMPOUNDS AND METHODS FOR POTENTIATING COLISTIN ACTIVITY” (University of Notre Dame du Lac, priority 2019, published 2022).

For test [1], the system named is A. baumannii 4106 (AB4106). As to the kind of experiment: Broth microdilution, colistin potentiation. The class given is cell-based. As for the experimental part: (§1) Broth microdilution method for measurement of colistin potentiation: Bacteria were cultured for 4 to 6 hours in CAMHB and diluted to 1.04×10^6 CFU/mL for AB 4106 and 1.96×10^6 CFU/mL for KP B9 in fresh CAMHB. To aliquots (4 mL) was added compound from stock solutions in DMSO. One aliquot was not dosed to allow measurement of the colistin MIC in the absence of compound. A 1 mL aliquot of each sample was dosed with colistin, and from this 200 μL was dispensed into the first row of a 96-well microtiter plate in which all but the final row of subsequent wells was prefilled with 100 μL of the corresponding compound dosed bacterial suspension The final row was filled with media to act as a sterility control and blank. Row one wells were mixed 6-7 times, then, 100 μL was withdrawn and transferred to row two. Row two wells were mixed 6-7 times followed by a 100 μL transfer from row two to row three. This procedure was used to serially dilute the rest of the rows of the microtiter plate, excluding the last prefilled row, which was used to measure growth in the presence of compound alone. Plates were then sealed with GLAD
(§2) Press'n Seal and incubated under stationary conditions at 37° C. […] MIC values were determined as the minimum concentration required to achieve 90% growth inhibition compared to growth in untreated wells.

In test [2] the test system is AB 4106. Description: Broth microdilution, standalone MIC of compound. The class given is cell-based, A. baumannii. Particulars: Acinetobacter baumannii, 16 h; standalone, no colistin; read-out: MIC of compound alone, AB 4106. As for the experimental part:
Broth microdilution method for the determination of minimum inhibitory concentrations: Bacteria were cultured for 4 to 6 hours in CAMHB and subcultured to 1.04×10^6 CFU/mL for AB 4106 and 1.96×10^6 CFU/mL for KP B9 in fresh CAMHB. To aliquots (1 mL) was added compound from stock solutions in DMSO, such that the compound concentration equaled the highest concentration tested. Samples were then dispensed (200 μL) into the first row of a 96-well microtiter plate in which all but the final row of subsequent wells were prefilled with 100 μL of the untreated bacterial subculture. The final row was filled with media to act as a sterility control and blank. Row one wells were mixed 6-7 times, then, 100 μL was withdrawn and transferred to row two. Row two wells were mixed 6-7 times followed by a 100 μL transfer from row two to row three. This procedure was used to serially dilute the rest of the rows of the microtiter plate, excluding the last prefilled row, which was used to measure growth in the absence of compound. Plates were then sealed with GLAD Press'n Seal and incubated under stationary conditions at 37 C. […] MIC values were determined as the minimum concentration required to achieve 90% growth inhibition compared to growth in untreated wells.

The test system of test [3] is AB4106 and KPB9. Description: Initial screen for colistin resistance suppression, statements in words for both strains. The class given is cell-based, A. baumannii and K. pneumoniae. Conditions: compound at 5 μM. On the procedure: as §1, §2
Setting [4] is: compound at 5 μM, colistin alone 2048 μg/mL.

Some results are limits rather than exact numbers.

Turning to `O=C(Nc1cc(C(F)(F)F)cc(C(F)(F)F)c1)c1cccc(Cl)c1` [Compound 1], the “Colistin MIC fold reduction, AB 4106” value in test [1] (setting [4]) is reported as no more than 16 fold. Further, in test [2], the MIC is greater than 200 µM. For the same compound, in test [3], the “Colistin potentiation activity in words, compared to IMD-0354” value is on record as “abrogated activity”.
Take `O=C(Nc1ccccc1Cl)c1cc(Cl)ccc1O` [Compound 39]: in test [1] (setting [4]), the “Colistin MIC fold reduction, AB 4106” value was found to be 256 fold. Further, the MIC in test [2] was greater than 200 µM. Moreover, in test [3], the “Colistin potentiation activity in words, compared to IMD-0354” value is on record as “less active”.
As to `O=C(Nc1cc(C(F)(F)F)ccc1C(F)(F)F)c1cc(Cl)ccc1O` [Compound 17], the “Colistin MIC fold reduction, AB 4106” value in test [1] (compound at 1 μM) was determined as 128 fold; in test [1] (compound at 3 μM), 512 fold; in test [1] (setting [4]), 1024 fold. Moreover, the MIC in test [2] is greater than 200 µM. In addition, the “Colistin potentiation activity in words, compared to IMD-0354” value in test [3] was “retained activity against KPB9 and AB4106 equivalent to IMD-0354”.
Regarding `O=C(Nc1cc(C(F)(F)F)cc(C(F)(F)F)c1)c1ccc(O)c(Cl)c1` [Compound 4, N-(3,5-bis(trifluoromethyl)phenyl)-3-chloro-4-hydroxybenzamide], in test [1] (setting [4]), the “Colistin MIC fold reduction, AB 4106” value is recorded as no more than 16 fold. Moreover, the MIC in test [2] is greater than 200 µM. The “Colistin potentiation activity in words, compared to IMD-0354” value in test [3] was “abolished activity”.
Consider `O=C(Nc1cc(C(F)(F)F)cc(C(F)(F)F)c1)c1cc(Cl)cc(Cl)c1O` [Compound 14], for which the “Colistin MIC fold reduction, AB 4106” value was found to be 32 fold in test [1] (compound at 1 μM), 512 fold in test [1] (compound at 3 μM) and 512 fold in test [1] (setting [4]). In test [2], the MIC came out at 100 µM. In addition, the “Colistin potentiation activity in words, compared to IMD-0354” value in test [3] is listed as “four-fold less active than 15”.
Turning to `COc1ccc(Cl)cc1C(=O)Nc1cc(C(F)(F)F)cc(C(F)(F)F)c1` [Compound 2], the “Colistin MIC fold reduction, AB 4106” value in test [1] (setting [4]) is no more than 16 fold. Besides, in test [2], the MIC is greater than 200 µM. In addition, the “Colistin potentiation activity in words, compared to IMD-0354” value in test [3] is “abrogated activity”.
For the compound `O=C(Nc1cc(C(F)(F)F)ccc1C(F)(F)F)c1cc(Cl)cc(Cl)c1O` [Compound 61, N-(2,5-bis(trifluoromethyl)phenyl)-3,5-dichloro-2-hydroxybenzamide], the “Colistin MIC fold reduction, AB 4106” value in test [1] (setting [4]) was no more than 16 fold. Moreover, the MIC in test [2] is greater than 200 µM. Besides, the “Colistin potentiation activity in words, compared to IMD-0354” value in test [3] is listed as “returned equipotent activity”.
Take `O=C(Nc1cc(C(F)(F)F)cc(C(F)(F)F)c1)c1cc(Br)ccc1O` [Compound 9]: the figures for the “Colistin MIC fold reduction, AB 4106” value in test [1] (compound at 1 μM), in test [1] (compound at 3 μM) and in test [1] (setting [4]) were 128 fold, 1024 fold and 1024 fold, respectively. Also, the MIC in test [2] was greater than 100 µM. The “Colistin potentiation activity in words, compared to IMD-0354” value in test [3] is “essentially equipotent activity to IMD-0354”.
`O=C(Nc1cc(C(F)(F)F)cc(C(F)(F)F)c1)c1cccc(Cl)c1O` [Compound 5]: the “Colistin MIC fold reduction, AB 4106” value in test [1] (compound at 1 μM) is given as no more than 16 fold; in test [1] (compound at 3 μM) it was 256 fold; in test [1] (setting [4]) it was 512 fold. The MIC in test [2] came to 100 µM. For the same compound, in test [3], the “Colistin potentiation activity in words, compared to IMD-0354” value was “essentially equipotent activity to IMD-0354”.
As to `COc1cc(NC(=O)c2cc(Cl)ccc2O)cc(OC)c1` [Compound 19], the “Colistin MIC fold reduction, AB 4106” value in test [1] (setting [4]) was no more than 16 fold. In addition, the MIC in test [2] was greater than 200 µM. In addition, the “Colistin potentiation activity in words, compared to IMD-0354” value in test [3] is “bereft of activity”.
In the case of `O=C(Nc1cc(C(F)(F)F)cc(C(F)(F)F)c1)c1cc(F)ccc1O` [Compound 8], the “Colistin MIC fold reduction, AB 4106” value in test [1] (compound at 1 μM) turned out to be 64 fold; in test [1] (compound at 3 μM), 1024 fold; in test [1] (setting [4]), 1024 fold. Also, the MIC in test [2] was greater than 200 µM. Moreover, the “Colistin potentiation activity in words, compared to IMD-0354” value in test [3] is reported as “essentially equipotent activity to IMD-0354”.
Take `O=C(Nc1cc(C(F)(F)F)cc(C(F)(F)F)c1)c1cccc(O)c1` [Compound 7, N-(3,5-bis(trifluoromethyl)phenyl)-3-hydroxybenzamide]: the MIC in test [2] was greater than 200 µM. Also, the “Colistin potentiation activity in words, compared to IMD-0354” value in test [3] is “devoid of activity”.
